The values that follow come from ChEMBL document CHEMBL3507680, “University of Dundee, Gates Library screen for HepG2 cell viability”.

A short description of the data set: Human HepG2 cell viability assay in 384 well format. In kind it is toxicity, cell-based. More on the design: dose 125 nL, time 70.5 hour; cytotoxicity at 70.5 h: concentration not given beside the values. The following applies: HepG2 cells, read-out: Inhibition.
As to `CCC(O)CN(CC(=O)NC(=O)NC1CC1)c1ccccc1` (configuration not stated), the cytotoxicity at 70.5 h is -6.3%.

As to `CS(=O)(=O)NCc1ncn2c1CN(CCN1CCCC1)CCC2`, the cytotoxicity at 70.5 h was -6.23%. Consider `COc1ccc(CC(=O)N2CC[C@@H]3[C@H](CC2)N(C)CCS3(=O)=O)cc1`, for which the cytotoxicity at 70.5 h is -8.6%. In the case of `CN(C(=O)c1ccc(Cl)cn1)c1ccccc1S(C)(=O)=O`, the cytotoxicity at 70.5 h is -5.72%. In the case of `CC(C)Nc1ncc(CN2C[C@@H](CN3CCC(O)CC3)[C@@H](CO)C2)cn1`, the cytotoxicity at 70.5 h is -3.95%. Take `CCc1nnc2n1CCN(Cc1csc(-c3cnn(C)c3)n1)C2`: the cytotoxicity at 70.5 h came out at 6.48%. As to `O=C1CO[C@H]2CN(Cc3ccc(C(F)(F)F)cc3)C[C@H]2N1`, the cytotoxicity at 70.5 h was -2.56%. As for `COc1cccc(OC2CN(C(=O)C3CCCN(C(=O)N(C)C)C3)C2)c1` (configuration not stated), the cytotoxicity at 70.5 h came out at 26.8%. `CC(C)(C)c1nnc(CNc2c(F)cccc2-n2cccn2)o1`: the cytotoxicity at 70.5 h was -8.76%. Consider `O=C(c1cnc(NCc2sccc2Br)c(Cl)c1)N1CCCCC1`, for which the cytotoxicity at 70.5 h is -9.35%. For the compound `O=C(C1CCCCC1)N1CCC2(CC1)OCCO2`, the cytotoxicity at 70.5 h was -5.09%.

As to `O=C(CCc1ccsc1)N1CCCCC1Cn1cccn1` (configuration not stated), the cytotoxicity at 70.5 h is -9.96%. In the case of `CNC(=O)N1CCc2nc(C(=O)Nc3cccnc3)sc2CC1`, the cytotoxicity at 70.5 h is -3.13%. The figure for `Cc1cccnc1N1CCC(c2nccn2Cc2cscn2)CC1` is -0.624%; for `CC(C)CN1CCN(C(=O)c2ccn(C)c(=O)c2)CC1` it is -9.05%; for `CC(C)(Oc1ccc(F)cc1)C(=O)NCc1ccco1` it is -2.11%.

`COc1cccc(CC2CN(C3CCC3)CCO2)c1` (configuration not stated): the cytotoxicity at 70.5 h amounted to 0.0358%. As to `CC1CCN(C(=O)CN2CC(c3nc(C4CC4)no3)C2)CC1`, the cytotoxicity at 70.5 h stood at 23.6%. The figure for `COc1cc(OC)cc(C(=O)N2CCOCC2c2[nH]ncc2C)c1` (configuration not stated) is 18%; for `CN(Cc1ccc2c(c1)OCCO2)C(=O)Cn1ccccc1=O` it is -5.02%; for `c1ccc(CCNC2CCc3ncnn3C2)nc1` (configuration not stated) it is 3.59%. For `Cc1occc1C(=O)N1CCC[C@]2(C[C@@H](OCc3ccccn3)CO2)C1`, the cytotoxicity at 70.5 h is -9.42%. For the compound `Cc1ccc(C(=O)NC(CN2CCCC2=O)c2ccccc2)c(=O)[nH]1` (configuration not stated), the cytotoxicity at 70.5 h is 17.4%.

For the compound `CCOc1ccccc1C(=O)NCCC(O)c1ccoc1` (configuration not stated), the cytotoxicity at 70.5 h was 9.07%. The figure for `COc1ccc(-c2nc(CN3CC(n4cc(C)cn4)C3)no2)cc1` is -4.24%; for `Fc1ccc(OCC2CCCO2)c(NCc2noc(C3CC3)n2)c1` (configuration not stated) it is -7.27%.

As to `CCNc1cc2c(nn1)CCN(C(=O)c1cc3ccccc3o1)C2`, the cytotoxicity at 70.5 h was -6.18%. The figure for `CN(C)c1cc2c(nn1)CCN(C(=O)c1cc3ccccc3o1)C2` is -11.3%.

In the case of `Cc1noc(CCCC(=O)NC(C)c2nnc3n2CCCCC3)n1` (configuration not stated), the cytotoxicity at 70.5 h was -1.92%. Regarding `COCC(O)CN1CCC(=O)N(CC2CC2)Cc2ccccc21` (configuration not stated), the cytotoxicity at 70.5 h was -3.32%. Take `COc1cccc(CC(=O)N2CCCSCC2CN2CCCC2)c1` (configuration not stated): the cytotoxicity at 70.5 h was -3.04%.

As to `Cc1cc(CN2CCN(c3ccc4nncn4n3)C(C)C2)no1` (configuration not stated), the cytotoxicity at 70.5 h was determined as 5.04%.

With `CC(C)NC(=O)[C@@H]1C[C@H](N)CN1C(=O)c1cc2ccccc2[nH]c1=O`, the cytotoxicity at 70.5 h was -8.06%. On to `COCc1cccc(C(=O)N2CCCCC2c2nccs2)c1` (configuration not stated), for which the cytotoxicity at 70.5 h is -8.81%. The figure for `O=C(CCNC(=O)c1ccoc1)Nc1ccccc1F` is -8.3%; for `COc1nc2c(cc1C(=O)NC(C)Cc1cc(C)n[nH]1)CCC2` (configuration not stated) it is -12%; for `O=C(COc1coc(CN2CCOCC2)cc1=O)Nc1ccccc1F` it is -12%.

Consider `O=C(c1ccco1)N1CC[C@H]2[C@H]1CCN2CC1CCOCC1`, for which the cytotoxicity at 70.5 h was 5.37%.

Regarding `Cc1noc(C)c1CN(C)C(=O)c1ccc(NC2CC2)nc1`, the cytotoxicity at 70.5 h is 0.339%. On to `O=C(CCc1cn[nH]c1)N1C[C@@H](CN2CCCCCC2)[C@@H](CO)C1`, for which the cytotoxicity at 70.5 h is -8.48%. The figure for `CCc1c(C)nc2n(c1=O)CC(C(=O)Nc1ccccc1F)CS2` (configuration not stated) is 20.5%; for `CC(=O)N1CCO[C@@H]2CN(C(=O)c3ccccc3)CC[C@@H]2C1` it is 13.4%. On to `CCn1cc(CN2CCc3nc(N4CCOCC4)nc(O)c3CC2)cn1`, for which the cytotoxicity at 70.5 h turned out to be 7.44%.

On to `Cc1cnc(CCNC(=O)NCCc2ccc(O)cc2)s1`, for which the cytotoxicity at 70.5 h was -3.5%. As for `Cc1ccnc(NCc2cccc(OCCN3CCOCC3)c2)n1`, the cytotoxicity at 70.5 h was found to be 32.7%.

Take `CCn1ncc(Nc2[nH]cnc3nc(C)nc2-3)c1C`: the cytotoxicity at 70.5 h is -6.65%. Take `Cc1[nH]c2ccccc2c1-c1ccnc(NCCN2CCCCC2)n1`: the cytotoxicity at 70.5 h was -3.28%. For `O=C(C1CCCO1)N1CCc2nnc(Cn3cccc3)n2CC1` (configuration not stated), the cytotoxicity at 70.5 h was -7.61%. As to `Cc1ccccc1C1(CN)CCOCC1`, the cytotoxicity at 70.5 h was -6.58%. Turning to `CS(=O)(=O)N1CCCc2sc(C(=O)NC3CC3)nc21`, the cytotoxicity at 70.5 h is -3.24%.

Turning to `NC(=O)CC1CCCN(c2cncc(OCc3ccccc3)n2)C1` (configuration not stated), the cytotoxicity at 70.5 h worked out at 21.3%. With `Cn1ccc(C(=O)N2CCCN(CCCc3ccccc3)CC2)cc1=O`, the cytotoxicity at 70.5 h is -17.2%. `COc1ccc(COCC(O)CNC(=O)c2cnc(C)cn2)cc1` (configuration not stated): the cytotoxicity at 70.5 h is -8.25%. With `COc1cccc(CNC(=O)c2nc3c(o2)CN(S(C)(=O)=O)C3)c1`, the cytotoxicity at 70.5 h was -6.24%.

For the compound `COCC(=O)N1CC[C@H]2C[C@H](C)O[C@@H]2C1`, the cytotoxicity at 70.5 h is -7.04%. Turning to `Cc1cccnc1NC(=O)C(C)Cn1nc(C(F)(F)F)cc1C` (configuration not stated), the cytotoxicity at 70.5 h was -4.08%. In the case of `Cc1nc(C)n(CC2CCCN(Cc3ccc(F)cc3C#N)C2)n1` (configuration not stated), the cytotoxicity at 70.5 h was -1.49%. As to `CN(C)S(=O)(=O)N1CCC2(CC1)CC(OCC1CC1)CO2` (configuration not stated), the cytotoxicity at 70.5 h was -4.38%.

Consider `CCOc1ncccc1Cn1cc(-c2nccn2C)nn1`, for which the cytotoxicity at 70.5 h is -10.3%. Regarding `CCC(C)N(Cc1cccnc1)C(=O)c1ccc(OC)cc1O` (configuration not stated), the cytotoxicity at 70.5 h was -9.19%. On to `COC(=O)c1cccc(-c2nc(CC3CCN(C)CC3)no2)c1`, for which the cytotoxicity at 70.5 h is -3.78%. As for `CCOC(C)C(=O)NCCNS(C)(=O)=O` (configuration not stated), the cytotoxicity at 70.5 h is -6.01%. Turning to `Cc1nccc(C(=O)N2CCCN(Cc3cnn(C(C)C)c3)CC2)n1`, the cytotoxicity at 70.5 h was -4.5%. Regarding `Cc1noc([C@@H]2C[C@H](NS(=O)(=O)Cc3ccccc3)CN2C)n1`, the cytotoxicity at 70.5 h was -3.9%. Take `CCc1noc(C(C)N2CCC(C)CC2)n1` (configuration not stated): the cytotoxicity at 70.5 h was -3.85%. For `O=C(NCCn1ccnc1)c1csc(Br)c1`, the cytotoxicity at 70.5 h is 16.5%.

For the compound `Cc1cc(N2CCC3(CCC(=O)N(CCO)C3)CC2)nc(N(C)C)n1`, the cytotoxicity at 70.5 h is -3.81%.

Regarding `CC(C)n1ccnc1C1CCN(C(=O)c2ccccn2)CC1`, the cytotoxicity at 70.5 h was -6.85%.

As to `Cn1ccnc1CN1CCC(Cn2cc(-c3ccncc3)nn2)CC1`, the cytotoxicity at 70.5 h worked out at 3.24%. `COc1ccc(CNCC(O)c2cccc(O)c2)cc1Br` (configuration not stated): the cytotoxicity at 70.5 h is -3.02%. With `CCC(NC(=O)NC1CCN(S(C)(=O)=O)CC1)c1cccs1` (configuration not stated), the cytotoxicity at 70.5 h was -11.5%. `O=C(NC1CCCN(c2ccc(OC(F)F)cc2)C1)c1ccon1` (configuration not stated): the cytotoxicity at 70.5 h is -1.24%.
